What all share (type): in vivo
In assay [1] the test system is female mice fed a high fat diet for 20 weeks. In words: GBR 12909 and FA, alone and combined, 14 days in high fat diet mice (Example 9). As to conditions: GBR 12909 10 mg/kg, FA 15 mg/kg, FIG. 11. The method, then: Female mice at 4 weeks of age were fed a high fat diet for 20 weeks to induce diabetes and insulin resistance and continued on such diet while treated for 14 days with either GBR 12909 (10 mg/kg), FA (15 mg/kg), GBR 12909 (10 mg/kg) plus FA (15 mg/kg), or vehicle and sacrified after 14 days of treatment for the analyses of body fat, blood glucose, plasma insulin, and plasma nitric oxide levels. The composite of body fat store level, blood glucose and plasma insulin was reduced the greatest in the GBR/FA group and by a magnitude more than additive of the individual GBR and FA groups combined. Only the GBR/FA group normalized plasma insulin levels. […] This effect was not observed with either GBR or FA treatments alone. Also, there was no desensitization to this dopamine enhancing treatment on this body weight reduction effect as is observed with dopamine D2 receptor agonists (FIG. 15).

In assay [2] the test system is male mice fed a high fat diet. In words: GBR versus bupropion in high fat diet mice (Example 11). As to the method: The effect of increasing central dopamine neuronal activity versus increasing central dopamine plus norepinephirne neuronal activity on body fat, blood glucose, plasma insulin, and insulin sensitivity was studied in male mice fed a high fat diet from 4 weeks of age until 24 weeks of age. These mice were maintained on this high fat diet while treated with either GBR (20 mg/kg) (a selective dopamine reuptake inhibitor) or bupropion (20 mg/kg) (a dopamine and norepinpehrine reuptake inhibitor) at doses that approximate their 50% maximal effective dose for these functions in vivo in rodents.

The subject of assay [3] is high fat fed, hypertensive SHR rats. In words: Quinelorane and fusaric acid, alone and combined, in high fat fed hypertensive SHR rats (Example 5). As to conditions: SHR rats on high fat diet, Q 0.075 mg/kg, FA 12.5 mg/kg. The method, then: Male SHR rats were maintained on 14 hour daily photoperiods and fed a high fat diet (60% of energy from fat; 5.24 kcal/gram weight) for 3 weeks and then divided into different groups and treated with either quinelorane (Q; a dopamine D2/D3 mixed receptor agonist) (0.075 mg/kg), fusaric acid (FA; a dopamine beta hydroxylase inhibitor) (12.5 mg/kg), quinelorane (0.075 mg/kg) plus FA (Q/FA) (12.5 mg/kg), or vehicle at 13 hours after light onset for 17 days. The doses of Q and FA were set at less than half maximal to effect central dopamine receptor binding functions and dopamine beta hydroxylase activity, respectively. […] Blood pressure measurements were taken at 14 days of treatment and animals were sacrificed at 18 days of treatment for analyses of body fat and humoral factors and metabolites. […] Respecting blood glucose, although both Q and FA reduced glucose level relative to vehicle, only the Q/FA regimen normalized blood glucose in these animals relative to vehicle (FIG. 6).

Assay [4] relates to obese, diabetic female ob/ob mice. In words: Fusaric acid and SKF 38393, alone and combined, 14 days in ob/ob mice (Example 4). As to conditions: fusaric acid 15 mg/kg, SKF 38393 10 mg/kg, once daily 14 days, day 15, controls 380+/−30. The method, then: Fusaric acid is a dopamine beta hydroxylase inhibitor that reduces noradrenaline synthesis in noradrenergic neurons. It is not present in dopaminergic neurons and thus exerts no such effect there. SKF38393 is a post-synaptic dopamine D1 receptor agonist with no marked influence on noradrenergic neurons. A study was conducted to determine the interactive effects of fusaric acid plus SKF 38393 on body fat store levels, and blood glucose and plasma triglyceride levels in ob/ob mice. The ob/ob mouse is hyperphagic, obese, insulin resistant, diabeteic and dyslipidemic due to the absence of functional leptin as a result of a mutation in this gene.
Obese, diabetic female ob/ob mice (body weight of approximately 33 g) maintained on 14 hour daily photoperiods, housed one per cage and allowed to feed ad libitum were randomized to once daily treatment with either fusaric acid (15 mg/kg; n=6-8), SKF 38393 (10 mg/kg; n=6-8), both fusaric acid (15 mg/kg) and SKF 38393 (10 mg/kg) (n=6-8), or vehicle (control group; n=6-8) for a 14 day period. On the fifteenth day of the study and approximately 24 hours after the final treatment animals were sacrificed and blood samples were obtained for the analyses of blood glucose, plasma free fatty acid and triglyceride levels. […]

With `Cl.Cl.Fc1ccc(C(OCCN2CCN(CCCc3ccccc3)CC2)c2ccc(F)cc2)cc1` [GBR 12909, 1-(2-[bis(4-Fluorophenyl)methoxy]ethyl)-4-(3-phenylpropyl)piperazine dihydrochloride], the blood glucose level result in assay [1] is listed as “no significant effect”. In assay [2] (GBR 20 mg/kg versus bupropion 20 mg/kg, equal dose), the reducing plasma insulin entry was “much more effective”. For the same compound, the body fat result in assay [2] (GBR 20 mg/kg, compared to vehicle and bupropion 20 mg/kg, FIG. 17) was “significantly reduced”. Turning to `CCCN1CCC[C@@H]2Cc3nc(N)ncc3C[C@H]21` [Q], the “change from baseline body weight (weight loss)” value in assay [3] (at 13 hours after light onset for 17 days, FIGS. 1 and 2) is “regained weight loss to baseline values by treatment end”. For the compound `Cl.Oc1cc2c(cc1O)C(c1ccccc1)CNCC2` (stereo not drawn) [SKF 38393, 1-phenyl-7,8-dihydroxy-2,3,4,5-tetrahydro-1H-3-benzazepine hydrochloride], the blood glucose in assay [4] came to 290 ± 55 mg/dL. With `CCCCc1ccc(C(=O)O)nc1` [fusaric acid, 5-butyl-2-pyridinecarboxylic acid], the “plasma C-reactive protein levels” value in assay [3] (17 days, relative to vehicle) is “no significant effect”.
